Measurements taken from ChEMBL document CHEMBL2424639, “Synthesis and pharmacological activities of some novel 5-chloro-N-(4-(1,5-(disubstituted)-4,5-dihydro-1H-pyrazol-3-yl)phenyl)-2-methoxybenzamide derivatives” (Med Chem Res, 2013).

How the values were obtained:
Rattus norvegicus [1] = experiment: Antiinflammatory activity in albino rat assessed as protection against carrageenan-induced paw edema at 50 mg/kg, po administered 1 hr prior to carrageenan challenge measured after 4 hrs relative to control; assay type: functional
Rattus norvegicus [2] = experiment: In vivo inhibition of PGE2 in albino rat plasma at 50 mg/kg, po administered 1 hr prior to carrageenan challenge measured after 4 hrs by EIA relative to control; assay type: functional
Rattus norvegicus [3] = experiment: Antiinflammatory activity in albino rat assessed as protection against carrageenan-induced paw edema at 25 mg/kg, po administered 1 hr prior to carrageenan challenge measured after 4 hrs relative to control; assay type: functional
Rattus norvegicus [4] = experiment: In vivo inhibition of PGE2 in albino rat plasma at 25 mg/kg, po administered 1 hr prior to carrageenan challenge measured after 4 hrs by EIA relative to control; assay type: functional
[5] = Acute toxicity in rat; assay type: organism-based; settings: in vivo

Compound | Activity (Rattus norvegicus [1]) [%] | inhibition in vivo at 50 mg/kg (Rattus norvegicus [2]) [%] | Activity (Rattus norvegicus [3]) [%] | inhibition in vivo at 25 mg/kg (Rattus norvegicus [4]) [%] | LD50 [5] [mg/kg]
COc1ccc(Cl)cc1C(=O)Nc1ccc(C2=NN(C)C(c3ccc([N+](=O)[O-])cc3)C2)cc1 (centres undefined) | 97.4 | 83.2 | 93 | 71.3 | 2540
COc1ccc(/C=C/C(=O)c2ccc(NC(=O)c3cc(Cl)ccc3OC)cc2)cc1 | 93.1 | 79.2 | 79 | 68.1 | 2230
COc1ccc(Cl)cc1C(=O)Nc1ccc(C2=NNC(c3ccc([N+](=O)[O-])cc3)C2)cc1 (centres undefined) | 95.3 | 86.3 | 91.25 | 76.3 | 
COc1ccc(Cl)cc1C(=O)Nc1ccc(C(=O)/C=C/c2ccccc2[N+](=O)[O-])cc1 | 85.85 | 80.4 | 81.8 | 69.1 | 2400
COc1ccc(Cl)cc1C(=O)Nc1ccc(C2=NN(C)C(c3ccccc3[N+](=O)[O-])C2)cc1 (centres undefined) | 99.5 | 91.2 | 96.45 | 83.8 | 2350
C[C@]12C=CC(=O)C=C1CC[C@@H]1[C@@H]2[C@@H](O)C[C@@]2(C)[C@H]1CC[C@]2(O)C(=O)CO [PREDNISOLONE] | 92.1 | 92.1 | 80.4 | 78.1 | 
COc1ccc(C2CC(c3ccc(NC(=O)c4cc(Cl)ccc4OC)cc3)=NN2C(C)=O)cc1 (centres undefined) | 90.2 | 88.4 | 86 | 79.4 | 
COc1ccc(Cl)cc1C(=O)Nc1ccc(C2=NN(c3ccccc3)C(c3ccccc3[N+](=O)[O-])C2)cc1 (centres undefined) | 88.4 | 84.3 | 80.18 | 73.3 | 2390
COc1ccc(Cl)cc1C(=O)Nc1ccc(C(=O)/C=C/c2ccc([N+](=O)[O-])cc2)cc1 |  |  |  |  | 1830
COc1ccc(Cl)cc1C(=O)Nc1ccc(C2=NN(C(C)=O)C(c3ccccc3[N+](=O)[O-])C2)cc1 (centres undefined) | 96.15 | 87.2 | 92.16 | 77.2 | 
COc1ccc(C2CC(c3ccc(NC(=O)c4cc(Cl)ccc4OC)cc3)=NN2C)cc1 (centres undefined) | 93.15 | 81.8 | 88.1 | 69.6 | 2390
COc1ccc(Cl)cc1C(=O)Nc1ccc(C2=NNC(c3ccccc3[N+](=O)[O-])C2)cc1 (centres undefined) | 90.89 | 84.5 | 88.3 | 72.3 | 
COc1ccc(Cl)cc1C(=O)Nc1ccc(C2=NN(CN3CCOCC3)C(c3ccc([N+](=O)[O-])cc3)C2)cc1 (centres undefined) | 97.9 | 90.1 | 94.13 | 80.1 | 
COc1ccc(Cl)cc1C(=O)Nc1ccc(C2=NN(c3ccccc3)C(c3ccc([N+](=O)[O-])cc3)C2)cc1 (centres undefined) | 94.1 | 85.3 | 90.85 | 75.3 | 2380
COc1ccc(C2CC(c3ccc(NC(=O)c4cc(Cl)ccc4OC)cc3)=NN2c2ccccc2)cc1 (centres undefined) | 98 | 90.2 | 94.82 | 82.3 | 2390
COc1ccc(C2CC(c3ccc(NC(=O)c4cc(Cl)ccc4OC)cc3)=NN2)cc1 (centres undefined) | 89 | 83 | 82.55 | 70.5 | 
